Read-outs that look alike come from different tables or passages of the source.
Experiments:
human PMNLs = assay: Lactate dehydrogenase release (LDH assay) in PMNL; format: cell-based
Procedure: After treatment of PMNL, supernatants were centrifuged (600g × 5 min, 4 °C), and 100 μL of supernatant were mixed with 200 μL LDH reaction buffer (75 mM Tris/HCl, pH 7.4, 0.3 mM NADH, 1.5 mM Na-pyruvate) in a 96-well plate. The decrease of NADH was measured immediately by absorbance at 340 nm in a kinetic mode (every 7 s for 20 min; Multiskan Spectrum). As a positive control for maximal LDH release, cells treated with 1 % Triton X-100 were included in each experiment, while untreated cells and vehicle (DMSO) served as negative controls.

12-LO = target: T1, 12-LO (Homo sapiens, UniProt P18054); assay: 12-LO product formation in intact human PMNL; format: cell-based; conditions: for IC50: PMNL, 2.5 μM A23187 plus 20 μM AA, read-out: LTC4; for effect on 12-LO activity: at 10 μM
T1 construct: endogenous in cells; host or cells: human PMNL preparations
T1 sequence (P18054 1-663): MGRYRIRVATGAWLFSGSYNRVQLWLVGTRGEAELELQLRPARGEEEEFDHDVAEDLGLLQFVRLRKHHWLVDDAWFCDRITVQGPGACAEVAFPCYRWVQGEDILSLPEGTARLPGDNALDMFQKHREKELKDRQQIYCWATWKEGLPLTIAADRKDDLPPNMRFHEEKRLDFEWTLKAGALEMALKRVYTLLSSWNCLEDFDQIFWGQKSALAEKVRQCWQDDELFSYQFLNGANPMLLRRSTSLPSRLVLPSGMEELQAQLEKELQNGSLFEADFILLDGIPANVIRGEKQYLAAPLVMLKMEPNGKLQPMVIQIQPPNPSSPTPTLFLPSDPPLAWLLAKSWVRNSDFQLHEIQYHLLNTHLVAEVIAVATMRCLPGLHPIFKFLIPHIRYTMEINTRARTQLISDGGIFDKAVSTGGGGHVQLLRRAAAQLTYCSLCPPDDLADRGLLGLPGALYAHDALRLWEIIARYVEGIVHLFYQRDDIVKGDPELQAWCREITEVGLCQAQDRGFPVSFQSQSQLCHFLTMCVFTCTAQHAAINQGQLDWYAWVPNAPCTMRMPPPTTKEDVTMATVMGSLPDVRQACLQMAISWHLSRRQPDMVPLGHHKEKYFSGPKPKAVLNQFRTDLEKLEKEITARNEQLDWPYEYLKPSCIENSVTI

5-LO [1] = target: T2, 5-LO (Homo sapiens, UniProt P09917); assay: 5-LO product formation in intact human PMNL (neutrophils); format: cell-based; set-up: endogenous in cells; host or cells: human PMNL from peripheral blood of healthy volunteers; conditions: intact human PMNL
T2 sequence (P09917 1-674): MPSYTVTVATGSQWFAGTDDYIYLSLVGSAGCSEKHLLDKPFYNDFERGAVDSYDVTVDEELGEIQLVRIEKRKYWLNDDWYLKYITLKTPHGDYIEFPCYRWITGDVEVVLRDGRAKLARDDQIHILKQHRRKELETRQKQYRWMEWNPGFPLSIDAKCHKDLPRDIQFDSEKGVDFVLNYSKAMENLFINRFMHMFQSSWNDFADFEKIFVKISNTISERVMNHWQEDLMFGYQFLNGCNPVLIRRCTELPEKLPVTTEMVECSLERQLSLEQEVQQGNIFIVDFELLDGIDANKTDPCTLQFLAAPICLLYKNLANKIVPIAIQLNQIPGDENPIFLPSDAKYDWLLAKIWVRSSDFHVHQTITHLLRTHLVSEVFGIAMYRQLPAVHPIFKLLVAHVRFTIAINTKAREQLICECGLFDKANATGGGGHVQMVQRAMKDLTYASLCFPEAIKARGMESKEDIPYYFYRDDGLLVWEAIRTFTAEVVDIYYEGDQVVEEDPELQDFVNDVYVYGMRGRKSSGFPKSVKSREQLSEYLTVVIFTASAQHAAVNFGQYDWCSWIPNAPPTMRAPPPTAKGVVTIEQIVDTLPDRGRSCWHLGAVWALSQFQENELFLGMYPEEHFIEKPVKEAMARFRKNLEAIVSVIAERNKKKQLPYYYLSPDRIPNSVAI
Procedure: PMNL and monocytes were isolated from human peripheral blood of adult healthy volunteers, with consent, obtained from the Institute of Transfusion Medi-cine, University Hospital Jena (Germany). PMNL were immediately isolated by dextran sedi-mentation, centrifugation on Nycoprep cushions, and hypotonic lysis of erythrocytes, as described. PMNL viability was analyzed by trypan blue exclusion with a Vi-cell counter (Beckmann Coulter GmbH, Krefeld). HEK-293 cells were grown in DMEM/High Glucose (4.5 g/L) medium supplemented with heat-inactivated fetal calf serum (FCS, 10 %, vv_1), 100 U/mLpenicillin, and 100 µg/mL streptomycin at 37 °C in a 5 % CO2 incubator. HEK-293 cells were stably transfected with 5-LO and FLAP as validated experimental cell-based model for studying the regulation of 5-LO [28]. None of the cell lines used in this study were authenticated.
Freshly isolated human PMNL (5 × 10^6) were resuspended in 1 mL PBS buffer containing 1 mg/mL glucose (PG buffer). […] After 10 min at 37 °C, the reaction was stopped with 1 mL of methanol for 10 min on ice and LO products formed and released in the supernatants were extracted and analyzed by HPLC. In detail, after centrifugation (800g, 10 min, room temperature) the samples were applied to C-18 solid-phase extraction columns (100 mg; IST, Mid Glamorgan, United Kingdom), preconditioned with 1 mL methanol and 1 mL water. The columns were washed with 1 mL water and 1 mL water/methanol (75/25, vol/vol) and 5-LO metabolites were eluted with 300 μL methanol. The extract was then diluted with 120 μL water, and 100 μL diluted extract were analyzed by HPLC using a C-18 Radial-Pak column (Waters) eluted with methanol/water/acetic acid 75/25/0.1 (vol/vol/vol) at a flow rate of 1.2 mL/min. Amounts of different metabolites were determined by peak area integration. 5-LO products analyzed include LTB4 and its two all-trans isomers, 5(S)-hydroxy-6-trans-8,11,14-cis-eicosatetraenoic acid (5-HETE), and 5(S)-hydroper-oxy-6-trans-8,11,14-cis-eicosatetraenoic acid (5-HpETE). 5-HETE and 5-HpETE coelute as one major peak, and the integration of this peak represented both eicosanoids.

5-LO [2] = target: T2, 5-LO; assay: cell-free 5-LO activity assay with purified human recombinant 5-LO; format: biochemical; set-up: made in house; conditions: for IC50: purified human recombinant 5-LO, 20 μM AA, read-out: Cell-free (IC50 of 5-LO activity); for 5-LO inhibition in the cell free assay: up to 10 μM
Procedure: 5-LO was expressed in E. coli B121 (DE3) transformed with pT3- 5LO plasmid, and purification of 5-LO was performed as described previously. Briefly, E. coli was lysed in 50 mM tri-ethanolamine/HCl, pH 8.0, 5 mM EDTA, […] soybean trypsin inhibitor, 1 mM phenylmethanesulfonyl fluoride, 1 mM dithiothreitol and 1 mg/mL lysozyme and then sonified (3 × 15 s). The homogenate was then centrifuged at 40,000g for 20 min at 4°C. 5-LO in the supernatant was partially purified by affinity chromatography on an ATP-agarose column (Sigma-Aldrich). Semi-purified 5-LO was diluted in PBS containing EDTA (1 mM) and ATP (1 mM) and immediately used for 5-LO activity assays. Samples were pre-incubated with the test compounds or vehicle (0.1 % DMSO) for 10 min at 4°C. Samples were pre-warmed for 30 s at 37°C, and 2 mM CaCl2 plus the indicated concentrations of AA were added to start 5-LO product formation. The reaction was stopped after 10 min by addition of one volume of ice-cold methanol, and the formed metabolites were analyzed by HPLC. 5- LO products include the all-trans isomers of LTB4 as well as 5-HPETE and its corresponding alcohol 5-HETE.

5-lipoxygenase (5-LO) [3] = target: 5-lipoxygenase (5-LO); set-up: method as in PMID 31523435; conditions: read-out: IC50 in whole blood; cited from earlier work
5-lipoxygenase (5-LO) [4] = target: 5-lipoxygenase (5-LO); set-up: method as in PMID 31523435; conditions: read-out: IC50 in isolated human neutrophils; cited from earlier work
5-LO [5] = test system: 5-LO; set-up: method as in PMID 23871907; conditions: cited from earlier work
mPGES-1 = test system: mPGES-1; set-up: method as in PMID 23871907; conditions: cited from earlier work
[6] = […] A23187 plus 20 μM AA, 10 min, read-out: Cell-based A23187 + AA (IC50 of 5-LO product formation)

Compound	cytotoxicity on PMNL (LDH levels in the supernatants) (human PMNLs)	IC50 (12-LO) [µM]	effect on 12-LO activity (12-LO)	IC50 (5-LO [1]; […] A23187, 10 min, read-out: Cell-based A23187 (IC50 of 5-LO product formation)) [µM]	IC50 (5-LO [1]; [6]) [µM]	IC50 (5-LO [2]) [µM]	5-LO inhibition in the cell free assay (5-LO [2])	IC50 (5-lipoxygenase (5-LO) [3]) [µM]	IC50 (5-lipoxygenase (5-LO) [4]) [µM]	IC50 (5-LO [5]) [µM]	IC50 (mPGES-1) [µM]
CCCC/C=C\CCCCCCCCCc1cccc(OC(C)=O)c1OC(C)=O [AI, (Z)-1,2-diacetoxy-3-(pentadec-10′-enyl)-benzene]	comparable to those of untreated controls	> 10	no significant effect	> 10	1.5 ± 1.4	> 10	No significant 5-LO inhibition	–	–	–	–
CCCCCCCCCCCCCCCc1cccc(OC(C)=O)c1OC(C)=O [AS, 1,2-diacetoxy-3-pentadecylbenzene]	comparable to those of untreated controls	> 10	no significant effect	–	> 10	> 10	No significant 5-LO inhibition	–	–	–	–
O=C(/C=C/c1ccc(O)c(O)c1)OCCc1ccccc1 [CAPE, Caffeic acid phenethyl ester]	–	–	–	–	–	–	–	1.8	0.5	–	–
CCCCCCCCCCCC1=C(O)C(=O)C=C(O)C1=O [embelin]	–	–	–	–	–	–	–	–	–	0.06	0.2

Source: article PMC12523804, “Evaluation of molecular mechanisms of (Z)-3-(pentadec-10′-enyl)-catechol (litreol) and synthetic derivatives as inhibitors of human leukotriene biosynthesis” (Redox Biology, 2025)
